Results: patent publication US10800816B2 (Baxalta GmbH, priority 2012, dated 2020)

Question: Which “Plasma Stability (half life in minutes) human” value does the source give for `CC(=O)N[C@@H](Cc1ccccc1)C(=O)N[C@@H](CCC(N)=O)C(=O)N[C@@H](CO)C(=O)N[C@@H](CCCCN)C(=O)N(C)CC(=O)N[C@@H](CC(N)=O)C(=O)N[C@H](C(=O)N[C@@H](Cc1ccccc1)C(=O)N[C@H](C(=O)N[C@@H](CC(=O)O)C(=O)NCC(=O)N[C@@H](Cc1ccc(O)cc1)C(=O)N[C@@H](Cc1ccccc1)C(=O)N[C@@H](CCC(=O)O)C(=O)N[C@@H](CCCNC(=N)N)C(=O)N[C@@H](CC(C)C)C(=O)NC(C)(C)C(=O)N[C@@H](C)C(=O)N[C@@H](CCCCN)C(=O)N[C@@H](CC(C)C)C(N)=O)C(C)C)C(C)C` [JBT1584] here?
Answer: >2 h
